Assay results: the supplement of paper PMC11208160

Test: recombinant barcode read abundance after kanamycin selection (control-corrected) (log10(CPM+1)); higher = more efficient recombination; sequences stand for … in AGTGCAGAGAAAATCGGCCAGTTTTCTCTGCCTGCAGTCCGCATGCCGT…AGATTTATGCAGCGGACTGCCTTTCTCCCAAAGTGATAAACCGGACAGTATCATGGACCGGTTTTCCCGGTAATCCGTATTTGCAAGGTTGGTTTCACT; site = the 11-nt target
Method in brief: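 In E. coli, a pooled library matched targets to IS621 bridge RNA target-binding loops and was introduced alongside a donor plasmid. Cells went onto chloramphenicol/ampicillin/kanamycin with 0.1 mM IPTG or onto chloramphenicol/ampicillin LB agar as control, in duplicate. Recombination efficiency, from recombinant-junction barcodes as counts per million, is averaged and control-corrected. It is reported as log10(CPM+1).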
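Note: IS621 recombinase and bridge RNA in Escherichia coli cells.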

GGTGGATCTTGGGTTCTAACCTGTTGCCT (site GGTGACTCTAG)
recombinant barcode read abundance (log10): 0.0125

GGTGGATCTTGGGTTCTAACCTGTTGCCT (site GGTGGATCTAG)
recombinant barcode read abundance (log10): 0.813

GGTGGCTCTTGGGTTCTAACCTGTTGCCA (site GGTGGCTCTTG)
recombinant barcode read abundance (log10): 0.607

GGTGGCTCTTGGGTTCTAACCTGTTGCCA (site TAATCTCCTAC)
recombinant barcode read abundance (log10): 0.0407

GGTGGGTCTTGGGTTCTAACCTGTTGCAT (site GGTGGGTCTAA)
recombinant barcode read abundance (log10): 0.345

GGTGGGTCTTGGGTTCTAACCTGTTGCAT (site GGTGGGTCTAC)
recombinant barcode read abundance (log10): 0.128

GGTGGGTCTTGGGTTCTAACCTGTTGCAT (site GGTGGGTCTAG)
recombinant barcode read abundance (log10): 0.805

GGTGGGTCTTGGGTTCTAACCTGTTGCAT (site GGTGGGTCTAT)
recombinant barcode read abundance (log10): 2.25

GGTGGGTCTTGGGTTCTAACCTGTTGCCT (site GGTGGGTCTAA)
recombinant barcode read abundance (log10): 0.123

GGTGGGTCTTGGGTTCTAACCTGTTGCCT (site GGTGGGTCTAC)
recombinant barcode read abundance (log10): 0.123

GGTGGGTCTTGGGTTCTAACCTGTTGCCT (site GGTGGGTCTAG)
recombinant barcode read abundance (log10): 1.29

GGTGGGTCTTGGGTTCTAACCTGTTGCCT (site GGTGGGTCTAT)
recombinant barcode read abundance (log10): 0.382

GGTTCCTCTTGGGTTCTAACCTGTTGCCT (site GGATCGTCTAG)
recombinant barcode read abundance (log10): 0.0714

GGTTCCTCTTGGGTTCTAACCTGTTGCCT (site GGTTCCTCTAG)
recombinant barcode read abundance (log10): 1.11

GGTTCTCCTTGGGTTCTAACCTGTTGCCT (site AGTTCTCCTAG)
recombinant barcode read abundance (log10): 0.0625

GGTTCTCCTTGGGTTCTAACCTGTTGCCT (site CGTTCTCCTAG)
recombinant barcode read abundance (log10): 0.0451

GGTTCTCCTTGGGTTCTAACCTGTTGCCT (site GGTTCTCCTAG)
recombinant barcode read abundance (log10): 0.288

GGTTCTCCTTGGGTTCTAACCTGTTGCCT (site TGTTCTCCTAG)
recombinant barcode read abundance (log10): 0.0347

GGTTCTTCTTGGGTTCTAACCTGTTGCCT (site GATTCTTCTAG)
recombinant barcode read abundance (log10): 0.12

GGTTCTTCTTGGGTTCTAACCTGTTGCCT (site GCTTCTTCTAG)
recombinant barcode read abundance (log10): 0.0288

GGTTCTTCTTGGGTTCTAACCTGTTGCCT (site GGTTCTTCTAG)
recombinant barcode read abundance (log10): 0.344

GGTTCTTCTTGGGTTCTAACCTGTTGCCT (site GTTTCTTCTAG)
recombinant barcode read abundance (log10): 0.19

GGTTGACCTTGGGTTCTAACCTGTTGCGG (site GGTTGACCTCC)
recombinant barcode read abundance (log10): 1.51

GGTTGACCTTGGGTTCTAACCTGTTGCGG (site GGTTGCCCTCC)
recombinant barcode read abundance (log10): 0.0589

GGTTGACCTTGGGTTCTAACCTGTTGCGG (site GGTTGGCCTCC)
recombinant barcode read abundance (log10): 0.0632

GGTTGACCTTGGGTTCTAACCTGTTGCGG (site GGTTGTCCTCC)
recombinant barcode read abundance (log10): 0.0522

GGTTGCCCTTGGGTTCTAACCTGTTGCGG (site GGTTGACCTCC)
recombinant barcode read abundance (log10): 0.295

GGTTGCCCTTGGGTTCTAACCTGTTGCGG (site GGTTGCCCTCC)
recombinant barcode read abundance (log10): 0.946

GGTTGCCCTTGGGTTCTAACCTGTTGCGG (site GGTTGGCCTCC)
recombinant barcode read abundance (log10): 0.0682

GGTTGCCCTTGGGTTCTAACCTGTTGCGG (site GGTTGTCCTCC)
recombinant barcode read abundance (log10): 0.0903

GGTTGTCCTTGGGTTCTAACCTGTTGCCT (site GGTGGTCCTAG)
recombinant barcode read abundance (log10): 0.253

GGTTGTCCTTGGGTTCTAACCTGTTGCCT (site GGTTGTCCTAG)
recombinant barcode read abundance (log10): 0.328

GGTTGTCCTTGGGTTCTAACCTGTTGCGG (site GGTTGACCTCC)
recombinant barcode read abundance (log10): 0.237

GGTTGTCCTTGGGTTCTAACCTGTTGCGG (site GGTTGCCCTCC)
recombinant barcode read abundance (log10): 0.0684

GGTTGTCCTTGGGTTCTAACCTGTTGCGG (site GGTTGGCCTCC)
recombinant barcode read abundance (log10): 0.109

GGTTGTCCTTGGGTTCTAACCTGTTGCGG (site GGTTGTCCTCC)
recombinant barcode read abundance (log10): 1.2

GGTTGTCCTTGGGTTCTAACCTGTTGCTA (site GATTGTCCTAA)
recombinant barcode read abundance (log10): 0.182

GGTTGTCCTTGGGTTCTAACCTGTTGCTA (site GGTTGTCCTTA)
recombinant barcode read abundance (log10): 0.181

GGTTTAGCTTGGGTTCTAACCTGTTGCTA (site GGTTTAGCTTA)
recombinant barcode read abundance (log10): 0.106

GGTTTAGCTTGGGTTCTAACCTGTTGCTA (site TGTATAGCTTA)
recombinant barcode read abundance (log10): 0.0842

GTAAAACCTTGGGTTCTAACCTGTTGCCT (site ATAAAACCTAG)
recombinant barcode read abundance (log10): 0.281

GTAAAACCTTGGGTTCTAACCTGTTGCCT (site CTAAAACCTAG)
recombinant barcode read abundance (log10): 0.23

GTAAAACCTTGGGTTCTAACCTGTTGCCT (site GTAAAACCTAG)
recombinant barcode read abundance (log10): 1.06

GTAAAACCTTGGGTTCTAACCTGTTGCCT (site TTAAAACCTAG)
recombinant barcode read abundance (log10): 0.266

GTAAACCCTTGGGTTCTAACCTGTTGCGG (site GTAAACCCTCC)
recombinant barcode read abundance (log10): 2.33

GTAAACCCTTGGGTTCTAACCTGTTGCGG (site GTCAACCCTCC)
recombinant barcode read abundance (log10): 0.228

GTAACGACTTGGGTTCTAACCTGTTGCCA (site GTAACGACTTG)
recombinant barcode read abundance (log10): 1.08

GTAACGACTTGGGTTCTAACCTGTTGCCA (site GTGAGGACTTG)
recombinant barcode read abundance (log10): 0.0765

GTAAGTCCTTGGGTTCTAACCTGTTGCAG (site GTAAGAACTCT)
recombinant barcode read abundance (log10): 0.0477

GTAAGTCCTTGGGTTCTAACCTGTTGCAG (site GTAAGTCCTCT)
recombinant barcode read abundance (log10): 1.97

GTAAGTGCTTGGGTTCTAACCTGTTGCAT (site ACCCAGTCTCC)
recombinant barcode read abundance (log10): 0.174

GTAAGTGCTTGGGTTCTAACCTGTTGCAT (site GTAAGTGCTAT)
recombinant barcode read abundance (log10): 0.829

GTAATCCCTTGGGTTCTAACCTGTTGCCA (site GTAATCCCTCG)
recombinant barcode read abundance (log10): 0.173

GTAATCCCTTGGGTTCTAACCTGTTGCCA (site GTAATCCCTTG)
recombinant barcode read abundance (log10): 1.32

GTACAGACTTGGGTTCTAACCTGTTGCCT (site GTACAGACTAG)
recombinant barcode read abundance (log10): 1.43

GTACAGACTTGGGTTCTAACCTGTTGCCT (site GTCCAGACTAG)
recombinant barcode read abundance (log10): 0.0588

GTACAGACTTGGGTTCTAACCTGTTGCCT (site GTGCAGACTAG)
recombinant barcode read abundance (log10): 0.0183

GTACAGACTTGGGTTCTAACCTGTTGCCT (site GTTCAGACTAG)
recombinant barcode read abundance (log10): 0.078

GTACAGGCTTGGGTTCTAACCTGTTGCAG (site GTACAGGCTCT)
recombinant barcode read abundance (log10): 0.808

GTACAGGCTTGGGTTCTAACCTGTTGCAG (site TGACAGGCTCT)
recombinant barcode read abundance (log10): 0.178

GTACGCACTTGGGTTCTAACCTGTTGCCT (site AGTTAGTCTCT)
recombinant barcode read abundance (log10): 0.0249

GTACGCACTTGGGTTCTAACCTGTTGCCT (site GTACGCACTAG)
recombinant barcode read abundance (log10): 0.994

GTAGTAGCTTGGGTTCTAACCTGTTGCCT (site GTAGTAACTAG)
recombinant barcode read abundance (log10): 0.954

GTAGTAGCTTGGGTTCTAACCTGTTGCCT (site GTAGTACCTAG)
recombinant barcode read abundance (log10): 0.0193

GTAGTAGCTTGGGTTCTAACCTGTTGCCT (site GTAGTAGCTAG)
recombinant barcode read abundance (log10): 2.06

GTAGTAGCTTGGGTTCTAACCTGTTGCCT (site GTAGTATCTAG)
recombinant barcode read abundance (log10): 0.492

GTAGTATCTTGGGTTCTAACCTGTTGCCT (site GTAGTAACTAG)
recombinant barcode read abundance (log10): 0.0297

GTAGTATCTTGGGTTCTAACCTGTTGCCT (site GTAGTACCTAG)
recombinant barcode read abundance (log10): 0.115

GTAGTATCTTGGGTTCTAACCTGTTGCCT (site GTAGTAGCTAG)
recombinant barcode read abundance (log10): 0.104

GTAGTATCTTGGGTTCTAACCTGTTGCCT (site GTAGTATCTAG)
recombinant barcode read abundance (log10): 1.96

GTATATACTTGGGTTCTAACCTGTTGCTT (site ACGGGGCCTCG)
recombinant barcode read abundance (log10): 0.0368

GTATATACTTGGGTTCTAACCTGTTGCTT (site GTATATACTAA)
recombinant barcode read abundance (log10): 0.578

GTATCATCTTGGGTTCTAACCTGTTGCCT (site GTATCAACTAG)
recombinant barcode read abundance (log10): 0.126

GTATCATCTTGGGTTCTAACCTGTTGCCT (site GTATCACCTAG)
recombinant barcode read abundance (log10): 0.942

GTATCATCTTGGGTTCTAACCTGTTGCCT (site GTATCAGCTAG)
recombinant barcode read abundance (log10): 0.0191

GTATCATCTTGGGTTCTAACCTGTTGCCT (site GTATCATCTAG)
recombinant barcode read abundance (log10): 0.52

GTATCGTCTTGGGTTCTAACCTGTTGCCT (site GTATCGTCTAG)
recombinant barcode read abundance (log10): 1.69
